Data on ten substances can be found in patent US8680065B2, “Oligonucleotides of human endogenous retrovirus 9 (ERV-9) long terminal repeat (LTR) and methods of use” (The United States of America, as represented by the …, priority 2008, dated 2014).

For data set [1], the system named is tumor. As to conditions: U.S. Pat. Nos. 7,256,284 and 6,946,447; Ozawa et al. 2004; cited from earlier work.
For data set [2], the system named is MDA-231 cells. Nature of the data set: Cancer cell proliferation, U3 and U5 oligonucleotides, 72 hours. It is filed as cell-based, human. As to conditions: 20 μg/ml. As for the experimental part:
FIG. 17 is a graph showing the effect of sense and antisense ERV-9 U3 and (SEQ ID NOs: 1, 2, 7, 8, 9, and 10) and U5 (SEQ ID NOs: 11 and 12) oligonucleotides on proliferation of MDA-231 cells. Cells (4×10^4) were treated with oligonucleotide formulated in LIPOFECTAMINE™ at a concentration of 20 μg/ml for 72 hours. GFP sense oligonucleotide and G3139, GRN163 and MDM2 antisense oligonucleotides were included as controls. Cell proliferation levels were expressed relative to cells transfected with GFP oligonucleotide. All U3 and U5 sense and antisense oligonucleotides inhibited cell proliferation better than GFP control and the G3139, GRN163 and MDM2 antisense oligonucleotides.
(§1) HT1080 or MDA-231 cells (4×10^4 cells) were treated with ERV-9 LTR (U3 or U5) sense or antisense oligonucleotides formulated in LIPOFECTAMINE™ at a concentration of 20 μg/ml for 72 hours. GFP sense oligonucleotide was used as a control to measure the non-specific cytotoxicity of phosphorothioates-based oligonucleotides. Relative cell proliferation levels were expressed as percentage of GFP oligonucleotide transfected control. The results are shown in FIG. 16 (HT1080 cells) and FIG. 17 (MDA-231 cells).

In data set [3] the test system is LNcaP cells. Put plainly: Cancer cell proliferation, oligonucleotide in combination with VP16, 48 hours. Type of data set: cell-based, human. As to conditions: oligonucleotide 15 μg/ml with VP16 30 ng/ml and 50 ng/ml. As for the experimental part: FIG. 10 is a graph showing proliferation of LNcaP cells treated with ERV-9 U3 sense or antisense oligonucleotide (SEQ ID NOs: 1 and 2, respectively), in combination with VP16. Cells (4×10^4) were treated with oligonucleotide (15 μg/ml) alone or in combination with the concentrations of VP16 shown for 48 hours.
To test the effect of treating cancer cells with the combination of ERV-9 U3 oligonucleotide and VP16, six different cancer cell lines were analyzed: HT1080, (FIG. 7); MDA-231 (FIG. 8); K562 (FIG. 9); LNcaP (FIG. 10); HepG2 (FIG. 11); and MCF-7 (FIG. 12). Cells (4×10^4) were treated with 15 μg/ml ERV-9 U3 sense (SEQ ID NO: 1) or antisense (SEQ ID NO: 2) oligonucleotide alone or in combination with VP16 at a concentration of 30 ng/ml or 50 ng/ml. After 48 hours, cell proliferation was assessed by direct cell counting. Cell proliferation levels were expressed relative to GFP oligonucleotide control in the absence of VP16.

Data set [4] relates to LNcaP cells (a prostate cancer cell line). Nature of the data set: Cancer cell proliferation, oligonucleotide in LIPOFECTAMINE, 48 hours, direct cell counting. Type of data set: cell-based, human. As to conditions: oligonucleotide 10, 20 or 30 μg/ml.
Data set [5] relates to MDA-231 cells (a breast cancer cell line). The description is as above. The settings on record: oligonucleotide 10, 20 or 30 μg/ml, P<0.05. Type of data set: cell-based, human.
Data set [6] deals with MDA-231 cells. Nature of the data set: Cancer cell proliferation, oligonucleotide in combination with VP16, 48 hours. It is filed as cell-based, human. As to conditions: oligonucleotide 15 μg/ml with VP16 30 ng/ml and 50 ng/ml, P<0.05.
The test system of data set [7] is HT1080 cells. Nature of the data set: Cancer cell proliferation, U3 and U5 oligonucleotides, 72 hours. It is filed as cell-based, human. The settings on record: 20 μg/ml. How it is done:
FIG. 16 is a graph showing the effect of sense and antisense ERV-9 U3 (SEQ ID NOs: 1, 2, 7, 8, 9, and 10) and U5 (SEQ ID NOs: 11 and 12) oligonucleotides on proliferation of HT1080 cells. Cells (4×10^4) were treated with oligonucleotide formulated in LIPOFECTAMINE™ at a concentration of 20 μg/ml for 72 hours. GFP sense oligonucleotide was used as a control to measure the non-specific cytotoxicity of phosphorothioate-based oligonucleotides. Antisense oligonucleotides G3139, GRN163, and MDM2 were also evaluated. Cell proliferation levels were expressed relative to cells transfected with GFP oligonucleotide. All U3 and U5 sense and antisense oligonucleotides inhibited cell proliferation to a greater extent that GFP control. In addition, with the exception of the U5 sense oligonucleotide, all U3 and U5 oligonucleotides inhibited cell proliferation better than the G3139, GRN163 and MDM2 antisense oligonucleotides.
as §1

For data set [8], the system named is MDA-231 cells. Put plainly: Tumor cell proliferation, siRNA in LIPOFECTAMINE, 72 hours. As to conditions: siRNA 100 nM. Type of data set: cell-based, human. As for the experimental part:
(§2) FIG. 20 is a pair of graphs showing the effect of ERV-9 LTR U3 region siRNA (SEQ ID NOs: 13 and 14), alone or in combination with VP16, on proliferation of MDA-231 (top) and MCF-7 (bottom) cells. 4×10^4 cells were treated with siRNAs formulated in LIPOFECTAMINE™ at 100 nM for 72 hours. RRM2 is a combination of three siRNAs (SEQ ID NOs: 15, 16, and 17) against ribonucleotide reductase subunit M2. Relative cell proliferation levels were expressed as percentage of non-treated control.
(§3) 4×10^4 cells were treated with siRNAs formulated in LIPOFECTAMINE™ at 100 nM for 72 hours. […] For RRM2, a combination of the 3 siRNAs was used at final concentration of 100 nM. Relative cell proliferation levels were expressed as percentage of non-treated control. Student's t-test was used for statistics.

For data set [9], the system named is MCF-7 cells. The description is as above. Type of data set: cell-based, human. As to conditions: siRNA 100 nM. How it is done:
as §2, §3

As to “GRN163: antisense oligonucleotide specific for telomerase, TAGGGTTAGACAA (listed as DNA, further chemistry not given here)”, in data set [1], the “tumor growth in animal models” value is “has been previously shown to inhibit tumor growth in animal models”. Further, the “cell proliferation relative to GFP oligonucleotide transfected control” value in [2] was “inhibited cell proliferation better than the GFP control oligonucleotide”. Besides, the “cell proliferation relative to GFP oligonucleotide control” value was “did not inhibit cell proliferation at any VP16 concentration tested” in [3] and “inhibited cell proliferation only at a VP16 concentration of 50 ng/ml” in [6]. In addition, the “cell proliferation relative to GFP oligonucleotide” value in data set [4] is “did not significantly inhibit cell proliferation at any of the three concentration levels”; in data set [5], “inhibited cell proliferation only at concentrations of 10 μg/ml and 20 μg/ml”.

Regarding “U3S5: ERV-9 U3 sense oligonucleotide GGCTGGCCAAGGCCAGAGCCGGCTCC, target nt 2792-2817 (AF064190) (listed as DNA, chemistry not given here) [Oligo U3S5]”, in data set [7], the “cell proliferation relative to GFP oligonucleotide transfected control” value is “inhibited cell proliferation better than G3139, GRN163 and MDM2 oligonucleotides”.

As for “G3139: antisense oligonucleotide specific for Bcl-2, TCTCCCAGCGTGCGCCAT (listed as DNA, chemistry not given here) [Oligo G3139]”, the “tumor growth in animal models” value in data set [1] is “has been previously shown to inhibit tumor growth in animal models”. Further, the entries for the “cell proliferation relative to GFP oligonucleotide transfected control” value in data set [2] and in [7] were “inhibited cell proliferation better than the GFP control oligonucleotide” and “inhibited cell proliferation better than the GFP oligonucleotide control”, respectively. The “cell proliferation relative to GFP oligonucleotide control” value in data set [3] is “did not inhibit cell proliferation at any VP16 concentration tested”; in data set [6] it was “inhibited cell proliferation only at a VP16 concentration of 50 ng/ml”. The “cell proliferation relative to GFP oligonucleotide” value in [4] was “did not significantly inhibit cell proliferation at any of the three concentration levels”; in data set [5], “inhibited cell proliferation only at oligonucleotide concentrations of 20 μg/ml and 30 μg/ml”.

As to “U5S: ERV-9 U5 sense oligonucleotide GAACACATCCAAACATCAGAAC, target nt 819-840 (AF064191) (listed as DNA, chemistry not given here) [Oligo U5S]”, the “cell proliferation relative to GFP oligonucleotide transfected control” value in data set [7] is given as “inhibited cell proliferation better than the GFP oligonucleotide control”.

On to “ERV-9 LTR U3 siRNA: siRNA duplex of the ERV9 LTR U3 region: CUCAAGGUUUGUAAACACACCAAUCAG and CUGAUUGGUGUGUUUACAAACCUUGAG (listed as RNA, chemistry not given here)”, for which the “cell proliferation as percentage of non-treated control” value in data set [8] and in [9] was “inhibited cell proliferation better than RRM2 siRNAs” throughout.

Regarding “MDM2 antisense oligonucleotide: antisense oligonucleotide specific for MDM2, TGACACCTGTTCTCACTCAC (listed as DNA, chemistry not given here)”, in data set [1], the “tumor growth in animal models” value is recorded as “has been previously shown to inhibit tumor growth in animal models”. For the same substance, the “cell proliferation relative to GFP oligonucleotide transfected control” value in [2] is “inhibited cell proliferation better than the GFP control oligonucleotide”; in [7], “inhibited cell proliferation better than the GFP oligonucleotide control”. In addition, the entries for the “cell proliferation relative to GFP oligonucleotide control” value in [3] and in data set [6] were “inhibited cell proliferation better than GFP control only at a VP16 concentration of 30 ng/ml” and “inhibited cell proliferation only at a VP16 concentration of 50 ng/ml”, respectively. Further, the “cell proliferation relative to GFP oligonucleotide” value in [4] is “inhibited cell proliferation only at a concentration of 10 μg/ml”; in data set [5], “inhibited cell proliferation only at concentrations of 10 μg/ml and 20 μg/ml”.

As for “U3AS4: ERV-9 U3 antisense oligonucleotide GCGGCGCTCGTCGGCGAGGCACGG, target nt 3096-3119 (AF064190) (listed as DNA, chemistry not given here) [Oligo U3AS4]”, in data set [7], the “cell proliferation relative to GFP oligonucleotide transfected control” value was “inhibited cell proliferation better than G3139, GRN163 and MDM2 oligonucleotides”.

For “U5AS: ERV-9 U5 antisense oligonucleotide GTTCTGATGTTTGGATGTGTTC, target nt 819-840 (AF064191) (listed as DNA, chemistry not given here) [Oligo U5AS]”, the “cell proliferation relative to GFP oligonucleotide transfected control” value in data set [7] was “inhibited cell proliferation better than G3139, GRN163 and MDM2 oligonucleotides”.

With “U3AS5: ERV-9 U3 antisense oligonucleotide CCGACCGGTTCCGGTCTCGGCCGAGG, target nt 2792-2817 (AF064190) (listed as DNA, chemistry not given here) [Oligo U3AS5]”, the “cell proliferation relative to GFP oligonucleotide transfected control” value in data set [7] was “inhibited cell proliferation better than G3139, GRN163 and MDM2 oligonucleotides”.

Turning to “U3S4: ERV-9 U3 sense oligonucleotide CCGAGCCTCGCCGACGAGCGCCGC, target nt 3096-3119 (AF064190) (listed as DNA, chemistry not given here) [Oligo U3S4]”, the “cell proliferation relative to GFP oligonucleotide transfected control” value in [7] is “inhibited cell proliferation better than G3139, GRN163 and MDM2 oligonucleotides”.
